Experimental data as given in PubChem BioAssay (NCI).
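1) Cells in 96-well plates. 2) Compound, 48 h, 5 concentrations. 3) Linear interpolation between surrounding doses. 4) Unreached endpoint = highest concentration. TGI: concentration producing complete growth inhibition.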

Assays:
Experiment in all cases: DTP human tumour cell line panel, 48 h
PC-3 prostate = tested on: PC-3 prostate
LOX IMVI melanoma = tested on: LOX IMVI melanoma
NCI-H226 lung = tested on: NCI-H226 lung
TK-10 renal = tested on: TK-10 renal
KM12 colon = tested on: KM12 colon
ACHN renal = tested on: ACHN renal
OVCAR-8 ovarian = tested on: OVCAR-8 ovarian
RXF 393 renal = tested on: RXF 393 renal
SW-620 colon = tested on: SW-620 colon
SK-MEL-28 melanoma = tested on: SK-MEL-28 melanoma
NCI-H23 lung = tested on: NCI-H23 lung
OVCAR-5 ovarian = tested on: OVCAR-5 ovarian
OVCAR-4 ovarian = tested on: OVCAR-4 ovarian
CAKI-1 renal = tested on: CAKI-1 renal
SF-268 CNS = tested on: SF-268 CNS
A498 renal = tested on: A498 renal
HOP-62 NSCLC = tested on: HOP-62 NSCLC
SK-MEL-2 melanoma = tested on: SK-MEL-2 melanoma
EKVX NSCLC = tested on: EKVX NSCLC
BT-549 breast = tested on: BT-549 breast
NCI/ADR-RES ovarian = tested on: NCI/ADR-RES ovarian
UACC-257 melanoma = tested on: UACC-257 melanoma
SNB-19 CNS = tested on: SNB-19 CNS
MDA-MB-435 = tested on: MDA-MB-435
HL-60(TB) leukemia = tested on: HL-60(TB) leukemia
K-562 leukemia = tested on: K-562 leukemia
SK-MEL-5 melanoma = tested on: SK-MEL-5 melanoma
COLO 205 colon = tested on: COLO 205 colon
NCI-H522 lung = tested on: NCI-H522 lung
MDA-MB-231 breast = tested on: MDA-MB-231 breast
SK-OV-3 ovarian = tested on: SK-OV-3 ovarian
SR leukemia = tested on: SR leukemia
UACC-62 melanoma = tested on: UACC-62 melanoma
SF-539 CNS = tested on: SF-539 CNS
MDA-N = tested on: MDA-N
CCRF-CEM leukemia = tested on: CCRF-CEM leukemia
DU-145 prostate = tested on: DU-145 prostate
SF-295 CNS = tested on: SF-295 CNS
T-47D breast = tested on: T-47D breast
SNB-75 CNS = tested on: SNB-75 CNS
IGROV1 ovarian = tested on: IGROV1 ovarian
A549 NSCLC = tested on: A549 NSCLC
HCT-15 colon = tested on: HCT-15 colon
MALME-3M melanoma = tested on: MALME-3M melanoma
HS 578T breast = tested on: HS 578T breast
OVCAR-3 ovarian = tested on: OVCAR-3 ovarian
HCT-116 colon = tested on: HCT-116 colon
RPMI-8226 leukemia = tested on: RPMI-8226 leukemia
786-0 renal = tested on: 786-0 renal
MCF7 breast = tested on: MCF7 breast
NCI-H460 lung = tested on: NCI-H460 lung
HT29 colon = tested on: HT29 colon
M14 melanoma = tested on: M14 melanoma
HOP-92 NSCLC = tested on: HOP-92 NSCLC
U251 CNS = tested on: U251 CNS
SN12C renal = tested on: SN12C renal
UO-31 renal = tested on: UO-31 renal
MOLT-4 leukemia = tested on: MOLT-4 leukemia
HCC-2998 colon = tested on: HCC-2998 colon

## N#CC1CNC(N)NC1N (configuration not stated)
PC-3 prostate
  TGI: > 100 µM
LOX IMVI melanoma
  TGI: > 100 µM
NCI-H226 lung
  TGI: > 100 µM
TK-10 renal
  TGI: > 100 µM
KM12 colon
  TGI: > 100 µM
ACHN renal
  TGI: > 100 µM
OVCAR-8 ovarian
  TGI: > 100 µM
RXF 393 renal
  TGI: > 100 µM
SW-620 colon
  TGI: > 100 µM
SK-MEL-28 melanoma
  TGI: > 100 µM
NCI-H23 lung
  TGI: > 100 µM
OVCAR-5 ovarian
  TGI: > 100 µM
OVCAR-4 ovarian
  TGI: > 100 µM
CAKI-1 renal
  TGI: > 100 µM
SF-268 CNS
  TGI: > 100 µM
A498 renal
  TGI: > 100 µM
HOP-62 NSCLC
  TGI: > 100 µM
SK-MEL-2 melanoma
  TGI: > 100 µM
EKVX NSCLC
  TGI: > 100 µM
BT-549 breast
  TGI: > 100 µM
NCI/ADR-RES ovarian
  TGI: > 100 µM
UACC-257 melanoma
  TGI: > 100 µM
SNB-19 CNS
  TGI: > 100 µM
MDA-MB-435
  TGI: > 100 µM
HL-60(TB) leukemia
  TGI: > 100 µM
K-562 leukemia
  TGI: > 100 µM
SK-MEL-5 melanoma
  TGI: > 100 µM
COLO 205 colon
  TGI: > 100 µM
NCI-H522 lung
  TGI: > 100 µM
MDA-MB-231 breast
  TGI: > 100 µM
SK-OV-3 ovarian
  TGI: > 100 µM
SR leukemia
  TGI: > 100 µM
UACC-62 melanoma
  TGI: > 100 µM
SF-539 CNS
  TGI: > 100 µM
MDA-N
  TGI: > 100 µM
CCRF-CEM leukemia
  TGI: 34.6 µM
DU-145 prostate
  TGI: > 100 µM
SF-295 CNS
  TGI: > 100 µM
T-47D breast
  TGI: > 100 µM
SNB-75 CNS
  TGI: > 100 µM
IGROV1 ovarian
  TGI: > 100 µM
A549 NSCLC
  TGI: > 100 µM
HCT-15 colon
  TGI: > 100 µM
MALME-3M melanoma
  TGI: > 100 µM
HS 578T breast
  TGI: > 100 µM
OVCAR-3 ovarian
  TGI: > 100 µM
HCT-116 colon
  TGI: > 100 µM
RPMI-8226 leukemia
  TGI: > 100 µM
786-0 renal
  TGI: > 100 µM
MCF7 breast
  TGI: > 100 µM
NCI-H460 lung
  TGI: > 100 µM
HT29 colon
  TGI: > 100 µM
M14 melanoma
  TGI: > 100 µM
HOP-92 NSCLC
  TGI: > 100 µM
U251 CNS
  TGI: > 100 µM
SN12C renal
  TGI: > 100 µM

## CC1(C)OC2C(CO)OC(n3cnc(N)nc3=O)C2O1 (configuration not stated)
PC-3 prostate
  TGI: > 100 µM
LOX IMVI melanoma
  TGI: > 100 µM
NCI-H226 lung
  TGI: > 100 µM
TK-10 renal
  TGI: > 100 µM
ACHN renal
  TGI: > 100 µM
OVCAR-8 ovarian
  TGI: > 100 µM
RXF 393 renal
  TGI: > 100 µM
SW-620 colon
  TGI: > 100 µM
SK-MEL-28 melanoma
  TGI: > 100 µM
NCI-H23 lung
  TGI: > 100 µM
OVCAR-5 ovarian
  TGI: > 100 µM
CAKI-1 renal
  TGI: > 100 µM
SF-268 CNS
  TGI: > 100 µM
A498 renal
  TGI: > 100 µM
HOP-62 NSCLC
  TGI: > 100 µM
SK-MEL-2 melanoma
  TGI: > 100 µM
EKVX NSCLC
  TGI: > 100 µM
BT-549 breast
  TGI: > 100 µM
NCI/ADR-RES ovarian
  TGI: > 100 µM
UACC-257 melanoma
  TGI: > 100 µM
SNB-19 CNS
  TGI: > 100 µM
MDA-MB-435
  TGI: > 100 µM
HL-60(TB) leukemia
  TGI: > 100 µM
K-562 leukemia
  TGI: > 100 µM
SK-MEL-5 melanoma
  TGI: > 100 µM
COLO 205 colon
  TGI: > 100 µM
NCI-H522 lung
  TGI: > 100 µM
MDA-MB-231 breast
  TGI: > 100 µM
SK-OV-3 ovarian
  TGI: > 100 µM
SR leukemia
  TGI: > 100 µM
UO-31 renal
  TGI: > 100 µM
UACC-62 melanoma
  TGI: > 100 µM
SF-539 CNS
  TGI: > 100 µM
MDA-N
  TGI: > 100 µM
CCRF-CEM leukemia
  TGI: > 100 µM
DU-145 prostate
  TGI: > 100 µM
SF-295 CNS
  TGI: > 100 µM
T-47D breast
  TGI: > 100 µM
IGROV1 ovarian
  TGI: > 100 µM
A549 NSCLC
  TGI: > 100 µM
HCT-15 colon
  TGI: > 100 µM
MOLT-4 leukemia
  TGI: > 100 µM
HS 578T breast
  TGI: > 100 µM
OVCAR-3 ovarian
  TGI: > 100 µM
HCC-2998 colon
  TGI: > 100 µM
HCT-116 colon
  TGI: > 100 µM
RPMI-8226 leukemia
  TGI: > 100 µM
786-0 renal
  TGI: > 100 µM
MCF7 breast
  TGI: > 100 µM
NCI-H460 lung
  TGI: > 100 µM
M14 melanoma
  TGI: > 100 µM
HOP-92 NSCLC
  TGI: > 100 µM
U251 CNS
  TGI: > 100 µM
SN12C renal
  TGI: > 100 µM

## Cc1cc(S(=O)(=O)n2ccnc2Oc2cccc(Cl)c2)c(SSc2cc(Cl)c(C)cc2S(=O)(=O)n2ccnc2Oc2cccc(Cl)c2)cc1Cl
PC-3 prostate
  TGI: > 78.5 µM
LOX IMVI melanoma
  TGI: > 100 µM
NCI-H226 lung
  TGI: 30.7 µM
TK-10 renal
  TGI: > 100 µM
KM12 colon
  TGI: > 100 µM
ACHN renal
  TGI: > 32 µM
OVCAR-8 ovarian
  TGI: > 41.8 µM
RXF 393 renal
  TGI: 24.2 µM
SW-620 colon
  TGI: > 100 µM
SK-MEL-28 melanoma
  TGI: > 100 µM
NCI-H23 lung
  TGI: > 100 µM
OVCAR-5 ovarian
  TGI: > 100 µM
OVCAR-4 ovarian
  TGI: > 100 µM
CAKI-1 renal
  TGI: > 43.5 µM
SF-268 CNS
  TGI: > 100 µM
A498 renal
  TGI: 84.5 µM
HOP-62 NSCLC
  TGI: 38.7 µM
SK-MEL-2 melanoma
  TGI: 26.9 µM
EKVX NSCLC
  TGI: > 100 µM
BT-549 breast
  TGI: 43 µM
NCI/ADR-RES ovarian
  TGI: 21.8 µM
UACC-257 melanoma
  TGI: > 100 µM
SNB-19 CNS
  TGI: > 100 µM
MDA-MB-435
  TGI: 48.3 µM
HL-60(TB) leukemia
  TGI: 20.9 µM
K-562 leukemia
  TGI: > 100 µM
SK-MEL-5 melanoma
  TGI: 23 µM
MDA-MB-231 breast
  TGI: > 51.3 µM
SK-OV-3 ovarian
  TGI: > 92.5 µM
SR leukemia
  TGI: > 100 µM
UO-31 renal
  TGI: > 100 µM
UACC-62 melanoma
  TGI: > 53.2 µM
SF-539 CNS
  TGI: 37 µM
MDA-N
  TGI: > 58.3 µM
CCRF-CEM leukemia
  TGI: 10.7 µM
DU-145 prostate
  TGI: > 78.7 µM
SF-295 CNS
  TGI: > 46.9 µM
T-47D breast
  TGI: > 67.2 µM
SNB-75 CNS
  TGI: > 91.1 µM
IGROV1 ovarian
  TGI: > 100 µM
A549 NSCLC
  TGI: > 100 µM
HCT-15 colon
  TGI: > 100 µM
MOLT-4 leukemia
  TGI: 35 µM
MALME-3M melanoma
  TGI: 41.1 µM
HS 578T breast
  TGI: 21.2 µM
OVCAR-3 ovarian
  TGI: > 100 µM
HCC-2998 colon
  TGI: 53 µM
HCT-116 colon
  TGI: > 60.7 µM
RPMI-8226 leukemia
  TGI: > 38.7 µM
786-0 renal
  TGI: > 70 µM
MCF7 breast
  TGI: > 29.3 µM
NCI-H460 lung
  TGI: > 71.1 µM
HT29 colon
  TGI: 48.5 µM
M14 melanoma
  TGI: > 42 µM
HOP-92 NSCLC
  TGI: > 100 µM
U251 CNS
  TGI: 12.4 µM
SN12C renal
  TGI: > 100 µM
